Like-named read-outs stand apart in the source and are kept apart here.
Test system: E. coli
Settings: for time/kill response over the first 6 hours contact time / contact time to total kill: FIG. 1; for contact time to total kill: sterile sludge, 22° C., about 10^8 cells per ml
Description: The methodology adopted to evaluate biocide performance was by Quantitative Suspension Test (QST) using sterile anaerobic digester sludge as the QST medium, back-inoculated with E. coli cultures previously isolated from the sludge. In this way, a consistent chemical environment (sterile sludge) could be used in conjunction with a defined bacterial challenge. This enables the provision of consistency between tests.
The E. coli strains used in QST had been isolated from raw-sludge samples.
QST were performed as follows: • Sterile sludge (19 ml) was dispensed into sterile, screw-cap, plastics universal bottles of nominal 30 ml capacity. • To each sample was added 0.5 ml of a washed cell suspension of E. coli prepared from a 16-hour culture incubated at 44° C. in Tryptose Soy Broth, which had been centrifuged (14500 rpm for 10 min.) and re-suspended in sterile phosphate buffer (0.2M at pH 7.2). An inoculum of 0.5 ml was sufficient to provide a final cell concentration of about 10^8 per ml in 20 ml of QST medium. • Fresh stock solutions of the candidate treatment chemicals were prepared in sterile phosphate buffer (0.2M at pH 7.2) at concentrations such that when 0.5 ml was added to the QST medium (final volume 20 ml) the desired final concentration of biocide was achieved. • The QST medium was mixed thoroughly and held at 22° C. for the duration of the test. • At intervals during the test, the sludge was well mixed and samples (1.0 ml) were removed from the QST medium and inoculated into the first tube of a dilution series containing MacConkey broth supplemented with sodium thiosulphate (5.0 g/l), to inactivate any residual biocide carried into the dilution series.
The end point was scored as the highest dilution in the series to show a change in colour from purple to yellow and to have developed turbidity.
MacConkey Broth was selected as this medium contains the pH indicator Bromocresol Purple that changes from purple to yellow as the medium becomes acidic. This is a useful indirect indicator of microbial growth (organic acid production) where this cannot be scored by the development of turbidity in an initially clear medium. Because the sludge contains suspended solids the first 2 tubes of the dilution series instantaneously develop turbidity on the addition of the sludge. This precludes using turbidity alone as an indicator of microbial growth.

Compound	log reduction in numbers (500 mg/l active ingredient, after 48 hours, FIG. 3) [log]	time/kill response over the first 6 hours contact time (250 mg/l)	contact time to total kill (250 mg/l) [h]	time/kill response over the first 6 hours contact time (500 mg/l)	contact time to total kill (500 mg/l) [h]	time/kill response over the first 6 hours contact time (1000 mg/l)	contact time to total kill (1000 mg/l) [h]	anti-microbial performance (Phosphonium Salt compared with DBNPA) (equal active-ingredient concentration of 500 mg/l, FIG. 3)
N#CC(Br)(Br)C(N)=O [DBNPA, dibromo-nitrilo-propionamide, reference compound]	2.5							
tetrakis(hydroxymethyl) phosphonium sulphate [Phosphonium Salt]		fairly flat	≤ 48	fairly flat	≤ 48	more progressive	≤ 24	superior

Source: patent publication US7638056B2, “Treatment of sewage sludge” (Rhodia Operations, priority 2003, dated 2009)
